Tested on: writhing induced by parabenzoquinone
Test: Analgesic activity, writhing method
Assay type: in vivo, mice
Conditions: 5.0 mg/100 g.b.w.
Procedure: The analgesic activity of the Nigella sativa L. polyunsaturated fatty acid fraction was studied using the writhing method described by Okun et al. (1963). Thirty mature mice of both sexes weighing from 20 to 25 gm were divided into 3 groups of 10 mice each. The first group served as a control and the second group served as a standard (treated with paracetamol in a dose of 5 mg/100 gm body weight). The third group was injected subcutaneously with the Nigella sativa L. polyunsaturated fatty acid fraction. […] […] Animals devoid of writhing in each group were recorded and the analgesic potencies of paracetamol and the Nigella sativa L. polyunsaturated fatty acid fraction were determined as percent protection against writhing.

CC(=O)Nc1ccc(O)cc1 [Paracetamol, paracetamol]
% Protection (30 minutes): 100% | % Protection (60 minutes): 60% | % Protection (90 minutes): 40% | % Protection (120 minutes): 20%

From patent publication US7722906B2, “Polyunsaturated fatty acid fractions of Nigella sativa L. seeds” (priority 2004, dated 2010)
